Here are results for two molecules from patent publication US20100286074A1, “PHARMACEUTICAL USE OF G[…] MIXTURE THEREOF AND PHARMACEUTICAL COMPOSITION OF G[…] USE THEREOF” (LIMIN PHARMACEUTICAL FACTORY, LIVZON GROUP, priority 2007, published 2010).

Molecules are shown by their SMILES. Counter-ions that a name gives are not always drawn.

Data set [1] has as its system platelet aggregation induced by ADP. Kind of data set: Platelet aggregation induced by ADP in patients after drug administration. In kind it is in vivo, human. The conditions noted are these: for platelet aggregation rate: patients, x ± s. From the text: • a. The patients with chronic cardiovascular and cerebrovascular diseases, and the course of disease >1 month; • b.
• a. The patients attacked by acute myocardial infarction or stroke in one month; • b. […] The patients with medical history of serious liver, kidney disease, or digestive tract or other organ bleeding; • d. The persons with reduced granulocytes or platelets.
(§1) The course for both experimental group and control group are four weeks.
(§2) The basic drugs taken by the patients for treating their cardiovascular and cerebrovascular diseases were maintained the same in terms of dosage and usage during the period for observation, but they are forbidden to take anticoagulant drug, such as aspirin, dipyridamole or Phenylbutazone. The administration was stopped at the end of 4th week and re-examination was performed to observe the change of indexes.
Induction experiment of two different concentrations of ADP (0.5 μmol/L and 1.0 μmol/L) was performed and re-examination was conducted on the 2nd and 4th weekends.
In Table 1, 0.5 and 1.0 represent the induction rate of 0.5 μmol/L of ADP and 1.0 μmol/L of ADP respectively.

In a further data set the test system is bleeding time. Kind of data set: Bleeding time (Duke Method) in patients. The data set is classed as in vivo, human. Here is the method:
as §2
(§3) Duke Method and Test Tube Method were used for determination respectively. The same method was used for the same case. The values are compared before and after the determination, and the changing values are calculated.

Another data set has as its system clotting time. As to the kind of experiment: Clotting time (Test Tube Method) in patients. In kind it is in vivo, human. Here is the method:
as §2, §3

The nature of data set [2]: Laboratory examination: liver function, blood and urine routine. In kind it is in vivo, human.
The nature of data set [3]: Adverse reactions in patients.
Text: as §1

The mark [4] stands for this setting: four weeks of one tablet per day oral, induction with 0.5 μmol/L ADP.
[5] abbreviates: four weeks of one tablet per day oral, induction with 1.0 μmol/L ADP.
The mark [6] stands for this setting: two weeks of one tablet per day oral, induction with 0.5 μmol/L ADP.
[7] abbreviates: two weeks of one tablet per day oral, induction with 1.0 μmol/L ADP.
The mark [8] stands for this setting: after taking drug (four-week course).
Setting [9] is: before taking drug (baseline of the group).

Consider `CC(C)=CCC[C@](C)(O)[C@H]1CC[C@]2(C)[C@@H]1[C@H](O)C[C@@H]1[C@@]3(C)CC[C@H](O)C(C)(C)[C@@H]3[C@@H](O[C@@H]3O[C@H](CO)[C@@H](O)[C@H](O)[C@H]3O)C[C@]12C` [ginsenoside Rh1], for which, in data set [1] (after taking drugs for 4 weeks), the “platelet aggregation rate compared with the control group (TCP)” value is “smaller than that of the control group obviously”. For the same molecule, the platelet aggregation rate in data set [1] (setting [4]) is 28.8 ± 23.4%; in data set [1] (setting [5]), 34.3 ± 25.6%; in data set [1] (setting [6]), 28.7 ± 22.5%; in data set [1] (setting [7]), 35.4 ± 23.4%. Also, the results for the bleeding time with bleeding time (setting [8]) and in the data set on bleeding time (setting [9]) were 1.89 ± 1.11 min and 1.72 ± 1.20 min, respectively. Moreover, the clotting time is 7.83 ± 2.55 min in the data set on clotting time (setting [8]) and 7.17 ± 2.59 min with clotting time (setting [9]). Further, the “liver function, blood and urine routine” value in data set [2] (before taking drugs vs after taking drugs for 4 weeks, all within normal limits) is “do not change significantly”. Also, the adverse reactions incidence in data set [3] (four-week course, mainly dizziness, nausea, conjunctiva bleeding and bleeding spot on skin) is given as 6.86%.

As for `Clc1ccccc1CN1CCc2sccc2C1` [TCP, ticlopidine hydrochloride, reference compound], the platelet aggregation rate in data set [1] (setting [4]) was 32.8 ± 23.1%; in data set [1] (setting [5]) it was 37.2 ± 25.4%; in data set [1] (setting [6]) it was 28.3 ± 23.8%; in data set [1] (setting [7]), 35.3 ± 20.8%. Also, the results for the bleeding time in the data set on bleeding time (setting [8]) and in the data set with bleeding time (setting [9]) were 2.29 ± 1.40 min and 1.73 ± 1.35 min, respectively. Also, the “liver function, blood and urine routine” value in data set [2] (in vivo) is reported as “do not change significantly”. Further, the “cases with skin rash, hoarseness and mild dysphagia” value in data set [3] (human, in vivo, 2 weeks) was 2 cases. For the same molecule, the adverse reactions incidence in data set [3] (human, in vivo, 4 weeks) is listed as 11.87%. Besides, in data set [3] (human, in vivo, 4 weeks), the “incidence of conjunctiva bleeding, purpura and bleeding spot on skin” value amounted to 3.45%.
